Laboratory results from US20240252594A1, “COMBINATION THERAPY FOR NEURODEGENERATIVE DISEASES” (ALETA NEUROSCIENCE, LLC, priority 2021, published 2024).

Key:
G93A transgenic ALS mice = conditions: mouse, in vivo; cited from earlier work
HD patients = conditions: up to 15 g/day; cited from earlier work
[1] = tested on: CXCL1/GROα mediated neuroinflammation in microglial cells; experiment: LPS/ATP-induced neuroinflammation in microglia: CXCL1/GROα secretion (Luminex); format: cell-based, human; conditions: for CXCL1/GROα in supernatant, Mean ± S.D. / CXCL1/GROα in supernatant, Replicate 1 / CXCL1/GROα in supernatant, Replicate 2 / CXCL1/GROα in supernatant, Replicate 3: LPS (100 ng/mL) + ATP (5 mM), six hours after LPS
From the text: (§1) In addition to the studies discussed above assessing activity of combinations of drugs on MPP+-induced neurodegeneration toxicity on human dopaminergic neurons as well as on a human iPSC cell line harboring a triplication mutation in alpha-synuclein gene, and measuring neuronal growth, neurite branching and neurofilament heavy chain, we also assessed combinations of drugs in reducing lipopolysaccharide (LPS, from E. coli)-induced neuroinflammation in human microglia cells.
(§2) Lipopolysaccharides are important outer membrane components of gram-negative bacteria such as E. coli and Salmonella. They are large amphipathic glycoconjugates that typically consist of a lipid domain (hydrophobic) attached to a core oligosaccharide and a distal polysaccharide. LPS binds to Toll-like receptor 4 (TLR4) and activates microglia(98) which in turn increases secretion of pro-inflammatory cytokines such as interleukin-6 (IL-6), tumor necrosis factor-α (TNF-α), and CXCL1/GROα.
(§3) Microglia cells were obtained from an iCell® Microglia kit, 01279 (Catalogue N^o R1131) from FUJIFILM Cellular Dynamics. We followed the manufacturer's protocol for activation of the microglial cells with LPS/ATP to subsequently measure the effect of the study drugs on pro-inflammatory cytokines IL-6, TNF-α and CXCL1/GROα.
(§4) All cell culture procedures were performed in aseptic conditions, under a laminar flow hood. Microglia were thawed and cultured following the provider's instructions. The microglia were plated at 50,000 cells per well of a Corning Primaria 96 well plate (Ref N^o 353872) in 100 μL of growth medium. Cells were incubated at 37° C./5% CO2 in a humidified cell culture incubator.
(§5) Three days after cell plating, the test or reference substances (25 μL of solutions at 5×) were applied 1 hour before LPS and ATP stimulation.
(§6) One hour later, 12.5 μL of test or reference substances were added again at 2× concentrated followed by 12.5 μL of LPS at 12× concentration. Fifty microliters of ATP were introduced at 4× concentration, 5 h 30 min after incubation with LPS.
(§7) Six hours after LPS incubation, the supernatant of each well was collected and centrifugated at 1000 g for 10 minutes to remove the cells and debris.
(§8) Fifty microliters of supernatant from NT and LPS+ATP-treated wells were used to determine cytokine secretion (IL-6, TNF-α, CXCL1/GROα) by Luminex platform according to the provider's instructions. Samples were diluted prior to the assay to fit within the standard range if needed. Three wells were tested per each condition (Table 11). Cytokines levels in the supernatant were expressed in pg/mL. The data was analyzed using a One-Way ANOVA followed by Bonferroni test.

[2] = tested on: iPSC-derived dopaminergic (DA) neurons harboring triplication of the α-synuclein locus; experiment: α-Synuclein triplication cell line: neurofilament heavy chain signal intensity; format: cell-based, human; conditions: normalized to Hoechst signal; three months treatment; PBA 500 μM, TUDCA 50 μM, EXD 100 nM
Protocol: We used 12 replicas for each experimental condition and 16 replicas for control (untreated cells). […] Cells were washed three times with warm phosphate buffered saline (PBS) and imaged immediately at 20× magnification on an imageXpress Micro confocal at 37° C. and 5% CO2.
Following imaging, cells were immediately fixed with 4% paraformaldehyde for 30 minutes at room temperature, washed three times with PBS, permeabilized with 0.2% Triton X-100 for 30 minutes, blocked with Odyssey Blocking Buffer for 60 minutes, and incubated overnight at 4° C. with primary antibodies, neurofilament (1:1000, Synaptic Systems 171 002) and LB509 (1:100, Abcam ab27766). Cells were washed 3× with 0.1% Tween-20 in PBS and incubated with Alexa Fluor Goat Anti-Rabbit 790 (1:1000) and Goat Anti-Mouse 647 (1:1000) for 1 hour at RT, before washing 3× with 0.1% Tween-20 in PBS and imaging with Sapphire Biomolecular Imager. Neurofilament heavy chain signal intensity was normalized to fixed Hoechst signal measured with Spectra Gemini plate reader (ex=350 nm, em=461 nm), using Hoechst 33342 nucleic acid stain from Invitrogen according to the manufacturer's instructions. Neurofilaments (NF) are located mostly in axons and indicate roughly the content of neurites. If neurodegeneration is halted or reversed, NF signal increases because it correlates with the number and/or length of neurites in the well.

[3] = tested on: IL-6 mediated inflammation in microglial cells; experiment: LPS/ATP-induced neuroinflammation in microglia: IL-6 secretion (Luminex); format: cell-based, human; conditions: for IL-6 in supernatant, Mean ± S.D. / IL-6 in supernatant, Replicate 1 / IL-6 in supernatant, Replicate 2 / IL-6 in supernatant, Replicate 3: LPS (100 ng/mL) + ATP (5 mM), six hours after LPS; for Decrease of IL-6 concentration: compared with […] distilled water in presence of LPS and ATP
From the text: as §1, §2, §3, §4, §5, §6, §7, §8

[4] = tested on: human dopaminergic neurons (iCell DopaNeurons); experiment: MPP+-induced neurotoxicity: cytolysis of iCell DopaNeurons; format: cell-based; conditions: for Cytolysis, Mean ± S.D.: Table 9.1, plate 1, with MPP+ 100 μM
Protocol: Three different measurements were made in the experiments. Neurite length in mm was measured, which is a measure of increase in dendril length of neurons. […] Secondly, neurite branching was measured. […] Thirdly, cytolysis of the cells was measured. […] Experimental conditions were measured relative to the results of healthy cells in the studies.
(§9) Procedure. iCell DOPA neurons were thawed and cultured following the provider's instructions in Brainphys medium+provided supplements+1% N2 supplement (Stemcell Technologies)+penicillin/streptomycin+Laminin. They were plated at 20000 cells per well of a 384 well plate (pre-coated with poly-D-lysine and Laminin) in 70 μL of growth medium. Cells were incubated at 37° ° C./5% CO2 in a humidified cell culture incubator. Half of the culture medium was changed twice a week.
(§10) MPP+-induced neurotoxicity: 24 hours after neuronal plating, half of the medium was removed and the test compounds were applied with MPP+ treatment, both concentrated at 4×, were added to the wells. For each well, five aliquots were added, corresponding columns A-E in Table 3. In each row, either the compound indicated dissolved in its vehicle noted in Table 2 was added, or only a vehicle was added as indicated. Column E is an indicator of whether MPP+ was added. If not, only the medium was added.
(§11) For the evaluation of conditions 8, 10,12, 22, 24, Neurite outgrowth was followed for subsequent 48 hours using an Incucyte Zoom platform with one phase contrast image every 4 hours, using a 20× objective. After 48 hours, the medium containing test compounds and MPP+ was removed and replaced by fresh medium containing a fluorescent cytolysis marker (red fluorescence) and a live cell marker (green fluorescence). For the evaluation of conditions 10, 12, 24, 38, 40, 51-53, Neurite outgrowth was followed similarly for subsequent 72 hours after MPP+ was added.
Data was normalized to control conditions as there is basal cytolysis in the cell culture after thawing.

[5] = tested on: human dopaminergic neurons (iCell DopaNeurons); experiment: MPP+-induced neurotoxicity: neurite outgrowth (neurite length, branch points) on iCell DopaNeurons; format: cell-based; conditions: for Neurite length, Mean: Table 7.1, plate 1; for Neurite length, Mean / Neurite Branching, Mean ± S.D.: 72 hours; for Neurite Branching, Mean ± S.D.: Table 7.2, plate 1
From the text: MPP+(1-methyl-4-phenylpyridinium) is a known neurotoxin which acts by interfering with oxidative phosphorylation in mitochondria by inhibiting complex I, a protein in the membrane of mitochondria in dopaminergic neurons in the substantia nigra.(94) The inhibition of mitochondrial function leads to the depletion of ATP and eventual cell death. MPP+ ultimately causes Parkinsonism in primates by killing certain dopamine-producing neurons in the substantia nigra.
iCell DOPA neurons are neural floor plate-derived midbrain dopaminergic neurons generated from human induced pluripotent stem cells (iPSCs). Dopaminergic neurons, specifically those located in the floor plate-derived midbrain are implicated in neurological disorders such as Parkinson's disease, MSA and DLBD among others. […] The iCellDopa neurons were supplied from FUJIFILM Cellular Dynamics.
as §9, §10, §11
Assay endpoints and data analysis. Phase contrast images were analyzed at each time point to determine the neurite length and number of branch points per mm^2. Kinetic data was plotted and kinetics were normalized by subtracting the value of the first data point (at time of treatment), allowing to measure changes in neurite outgrowth only from the onset of the treatment, starting at zero. Area Under Curve (AUC) of kinetic data was obtained and used for plotting compound's effects and perform statistical analyzes.

[6] = tested on: TNF-α mediated neuroinflammation in microglial cells; experiment: LPS/ATP-induced neuroinflammation in microglia: TNF-α secretion (Luminex); format: cell-based, human; conditions: for TNF-α in supernatant, Mean ± S.D. / TNF-α in supernatant, Replicate 1 / TNF-α in supernatant, Replicate 2 / TNF-α in supernatant, Replicate 3: LPS (100 ng/mL) + ATP (5 mM), six hours after LPS; for Decrease of TNF-α concentration: compared with […] distilled water in presence of LPS and ATP
From the text: as §1, §2, §3, §4, §5, §6, §7, §8

cortical neurons = conditions: 100 μM for 12 h; cited from earlier work
APP/PS1 mice = conditions: 6-month treatment with 0.4% of TUDCA in diet; cited from earlier work
R6/2 transgenic mice = conditions: 500 mg/kg; cited from earlier work
[7] = tested on: riluzole-treated patients; conditions: cited from earlier work
MPTP mouse model = conditions: pre-treatment 50 mg/kg for 3 days; cited from earlier work
[8] = tested on: patients with rapidly progressive SOD1 ALS; conditions: not statistically significant; cited from earlier work
SOD(G93A) mice = conditions: treatment from 75 days; cited from earlier work

| Compound | CXCL1/GROα in supernatant, Mean ± S.D. [1] | CXCL1/GROα in supernatant, Replicate 1 [1] | CXCL1/GROα in supernatant, Replicate 2 [1] | CXCL1/GROα in supernatant, Replicate 3 [1] | Neurofilament Heavy Chain signal intensity, mean [2] | IL-6 in supernatant, Mean ± S.D. [3] | IL-6 in supernatant, Replicate 1 [3] | IL-6 in supernatant, Replicate 2 [3] | IL-6 in supernatant, Replicate 3 [3] | Decrease of IL-6 concentration [3] | Cytolysis, Mean ± S.D. [4] | Increase of number of branch points compared with MPP+ alone (control/MPP+) ([5]; AUC, MPP+ 100 μM) | Neurite length, Mean ([5]; with MPP+ 100 μM) | Neurite Branching, Mean ± S.D. ([5]; with MPP+ 100 μM) | TNF-α in supernatant, Mean ± S.D. [6] | TNF-α in supernatant, Replicate 1 [6] | TNF-α in supernatant, Replicate 2 [6] | TNF-α in supernatant, Replicate 3 [6] | Decrease of TNF-α concentration [6] | further results |
| --- | --- | --- | --- | --- | --- | --- | --- | --- | --- | --- | --- | --- | --- | --- | --- | --- | --- | --- | --- | --- |
| O=C([O-])CCCc1ccccc1.[Na+] [PBA, Sodium 4-phenylbutyrate] | 495.79 ± 122.99 pg/mL | 627.29 pg/mL | 383.60 pg/mL | 476.49 pg/mL | 1.088 | 355.23 ± 45.97 pg/mL | 396.23 pg/mL | 363.94 pg/mL | 305.53 pg/mL | 49% | 72.06 ± 1.77% | 89% | 1681.1 mm/mm^2 | 46742.8 ± 7107.5 per mm^2 | 33.46 ± 1.75 pg/mL | 32.67 pg/mL | 35.47 pg/mL | 32.24 pg/mL | 44% | Survival (G93A transgenic ALS mice): significantly extended survival; Safety and tolerability (HD patients): safe and well-tolerated; Protective effect on neurite length and branching (in words) ([5]; MPP+ 100 μM): much less protective effect than combination 8; Neurite length - Baseline-corrected AUC (0-72 h), Mean ([5]; Table 5.1, plate 1, with MPP+ 100 μM): 853.7 mm/mm^2; Number of branch points per mm^2 - Baseline-corrected AUC (0-72 h), Mean ([5]; Table 5.2, plate 1, with MPP+ 100 μM): 41712.8 per mm^2 |
| C[C@H](CCC(=O)NCCS(=O)(=O)O)[C@H]1CC[C@H]2[C@@H]3[C@@H](O)C[C@@H]4C[C@H](O)CC[C@]4(C)[C@H]3CC[C@]12C [TUDCA, Tauroursodeoxycholic acid] | 424.96 ± 48.95 pg/mL | 447.19 pg/mL | 368.84 pg/mL | 458.86 pg/mL | 1.313 | 437.81 ± 24.71 pg/mL | 410.97 pg/mL | 442.87 pg/mL | 459.60 pg/mL | 37% | 70.69 ± 2.02% | 60% | 1825.9 mm/mm^2 | 58836.3 ± 9596.4 per mm^2 | 28.57 ± 0.58 pg/mL | 29.01 pg/mL | 27.92 pg/mL | 28.79 pg/mL | 52% | Aβ peptide-associated apoptosis (cortical neurons): significantly decrease Aβ peptide-associated apoptosis; Aβ plaque accumulation in the brain (APP/PS1 mice): prevented Aβ plaque accumulation in the brain; Decrease of GROα concentration ([1]; compared with […] distilled water in presence of LPS and ATP): 32%; Neuroprotection (R6/2 transgenic mice): neuroprotective effects; Baseline-adjusted ALSFRS-R at study end vs placebo ([7]; P=0.007): significantly higher; Tolerability ([7]; human, in vivo): well tolerated; Proportion of responders ([7]; placebo 43%, P=0.021): 87%; Reduction of cytolysis (cell death) (in words) ([4]; vs Control/MPP+): did not reduce cytolysis with statistical significance; Increase of neurite length compared with MPP+ alone (control/MPP+) ([5]; AUC, MPP+ 100 μM): 43%; Neurodegeneration of nigral dopaminergic neurons caused by MPTP (MPTP mouse model): significantly reduced neurodegeneration of the nigral dopaminergic neurons |
| [O-][n+]1cccc(/C(Cl)=N/OC[C@H](O)CN2CCCCC2)c1 [arimoclomol, Arimoclomol] |  |  |  |  |  |  |  |  |  |  |  |  |  |  |  |  |  |  |  | Survival, hazard ratio [8]: 0.77; Lifespan (SOD(G93A) mice): significantly increased the lifespan |
